Experimental data from ChEMBL document CHEMBL1141773, “SERCA-inhibiting activity of C-19 terpenolides from Thapsia garganica and their possible biogenesis” (J Nat Prod, 2005).

Assays:
Lytechinus pictus [1] = assay: Inhibition of SERCA in sea urchin eggs assessed as Ca2+ leak rate; set-up: scale not given: the % may be the effect or the level left
Lytechinus pictus [2] = assay: Inhibition of SERCA in sea urchin eggs assessed as Ca2+ leak rate at 10 uM
[3] = Inhibition of SERCA in sea urchin eggs assessed as Ca2+ leak rate at 10 uM relative to thapsigargin; set-up: species or system Lytechinus pictus

Row | SMILES | Activity (Lytechinus pictus [1]) [%] | Activity (Lytechinus pictus [2]) [RFU/min] | Ki [3] [pM]
1 | C=C[C@]1(C)CC[C@H]2C(C)(C)[C@H]3C=C4C=C(OC)OC(=O)[C@@H]1[C@@]42OC3=O | 65.4 |  | 
2 | C/C=C(/C)C(=O)O[C@H]1C(C)=C2[C@H]([C@@H]1OC(=O)CCCCCCC)[C@@](C)(OC(C)=O)C[C@H](OC(=O)CCC)[C@@]1(O)[C@H]2OC(=O)[C@@]1(C)O [THAPSIGARGIN] |  | 81 | 2
3 | C=C[C@@]1(C)CC[C@H]2[C@](C)(COC(C)=O)[C@H]3C=C4C=C(OC)OC(=O)[C@@H]1[C@@]42OC3=O | 64.2 |  | 

More lines, main results first:

Row | Activity (Lytechinus pictus [1]) [%] | SMILES | Activity (Lytechinus pictus [2]) [RFU/min] | Ki [3] [pM]
4 | 61.4 | C=C[C@@]1(C)CC[C@H]2[C@](C)(C(=O)OC)[C@H]3C=C4C=C(OC)OC(=O)[C@@H]1[C@@]42OC3=O |  | 
5 | 65.4 | C=C[C@@]1(C)CC[C@H]2C(C)(C)[C@H]3C=C4C=C(OC)OC(=O)[C@@H]1[C@@]42OC3=O |  | 
